Laboratory results reported in ChEMBL document CHEMBL1125223, “Synthesis and antibacterial activities of C-21 functionalized derivatives of (9R)-9-amino-9-deoxoerythromycins A and B” (1991).
Values after ≈ are worked out from the molar mass of the structure shown.

What was measured:
Format in all cases: functional
Streptococcus pyogenes [1] = assay: Concentration required to inhibit Streptococcus pyogenes 2548 INDUC stain by standard agar dilution method.
Escherichia coli [2] = assay: Concentration required to inhibit Escherichia coli KNK 437 stain by standard agar dilution method.
Enterococcus faecium = assay: Concentration required to inhibit Enterococcus faecium ATCC 8043 stain by standard agar dilution method.
[3] = test system: Acinetobacter calcoaceticus; assay: Concentration required to inhibit Acinetobacter calcoaceticus CMX669 stain by standard agar dilution method.
Burkholderia cepacia = assay: Concentration required to inhibit Pseudomonas cepacia 2961 stain by standard agar dilution method.
Escherichia coli [4] = assay: Concentration required to inhibit Escherichia coli H 560 stain by standard agar dilution method.
Staphylococcus aureus [5] = assay: Concentration required to inhibit CMX553 Staphylococcus aureus CMX553 stain by standard agar dilution method
Escherichia coli [6] = assay: Concentration required to inhibit Escherichia coli DC-2 stain by standard agar dilution method.
Escherichia coli [7] = assay: Concentration required to inhibit Escherichia coli JUHL stain by standard agar dilution method.
Streptococcus pyogenes [8] = assay: Concentration required to inhibit Streptococcus pyogenes EES61 stain by standard agar dilution method.
Streptococcus equinus = assay: Concentration required to inhibit Streptococcus bovis A5169 stain by standard agar dilution method.
[9] = test system: Staphylococcus epidermidis; assay: Concentration required to inhibit Staphylococcus epidermis 3519 stain by standard agar dilution method.
Klebsiella aerogenes = assay: Concentration required to inhibit Enterobacter aerogenes ATCC 13048 stain by standard agar dilution method.
Pseudomonas aeruginosa [10] = assay: Concentration required to inhibit Pseudomonas aeruginosa K799/61 stain by standard agar dilution method.
Micrococcus luteus [11] = assay: Concentration required to inhibit Micrococcus luteus ATCC 9341 stain by standard agar dilution method.
Streptococcus pyogenes [12] = assay: Concentration required to inhibit Streptococcus pyogenes 930CONST stain by standard agar dilution method.
Pseudomonas aeruginosa [13] = assay: Concentration required to inhibit Pseudomonas aeruginosa K799/WT stain by standard agar dilution method.
Staphylococcus aureus [14] = assay: Concentration required to inhibit Staphylococcus aureus ATCC 6538P stain by standard agar dilution method
Streptococcus agalactiae = assay: Concentration required to inhibit Streptococcus agalactiae CMX508 stain by standard agar dilution method.
Klebsiella pneumoniae = assay: Concentration required to inhibit Klebsiella pneumoniae ATCC 8045 stain by standard agar dilution method.
Staphylococcus aureus [15] = assay: Concentration required to inhibit 45 stain Staphylococcus aureus 45 by standard agar dilution method.
Escherichia coli [16] = assay: Concentration required to inhibit Escherichia coli SS stain by standard agar dilution method.
Micrococcus luteus [17] = assay: Concentration required to inhibit Micrococcus luteus ATCC 4698 stain by standard agar dilution method.

Structure (SMILES)	MIC (Streptococcus pyogenes [1]) [µg/mL]	MIC (Escherichia coli [2]) [µg/mL]	MIC (Enterococcus faecium) [µg/mL]	MIC [3] [µg/mL]	MIC (Burkholderia cepacia) [µg/mL]	MIC (Escherichia coli [4]) [µg/mL]	MIC (Staphylococcus aureus [5]) [µg/mL]	MIC (Escherichia coli [6]) [µg/mL]	MIC (Escherichia coli [7]) [µg/mL]	MIC (Streptococcus pyogenes [8]) [µg/mL]	MIC (Streptococcus equinus) [µg/mL]	MIC [9] [µg/mL]	MIC (Klebsiella aerogenes) [µg/mL]	MIC (Pseudomonas aeruginosa [10]) [µg/mL]	MIC (Micrococcus luteus [11]) [µg/mL]	MIC (Streptococcus pyogenes [12]) [µg/mL]	MIC (Pseudomonas aeruginosa [13]) [µg/mL]	MIC (Staphylococcus aureus [14]) [µg/mL]	MIC (Streptococcus agalactiae) [µg/mL]	MIC (Klebsiella pneumoniae) [µg/mL]	also measured
CC[C@H]1OC(=O)[C@H](C)[C@@H](O[C@H]2C[C@@](C)(OC)[C@@H](O)[C@H](C)O2)[C@H](C)[C@@H](O[C@@H]2O[C@H](C)C[C@H](N(C)C)[C@H]2O)[C@@](C)(O)C[C@@H](C)[C@@H](N(C)C)[C@H](C)[C@@H](O)[C@]1(C)O	100 (≈ 131 µM)	50 (≈ 65.5 µM)	0.2 (≈ 0.262 µM)	12.5 (≈ 16.4 µM)	> 100	12.5 (≈ 16.4 µM)	0.78 (≈ 1.02 µM)	25 (≈ 32.8 µM)	50 (≈ 65.5 µM)	0.05 (≈ 0.0655 µM)	0.1 (≈ 0.131 µM)	0.39 (≈ 0.511 µM)	50 (≈ 65.5 µM)	12.5 (≈ 16.4 µM)	0.1 (≈ 0.131 µM)	> 100	> 100	0.39 (≈ 0.511 µM)	0.1 (≈ 0.131 µM)	25 (≈ 32.8 µM)	MIC (Staphylococcus aureus [15]): 0.78 µg/mL (≈ 1.02 µM); MIC (Escherichia coli [16]): 0.1 µg/mL (≈ 0.131 µM); MIC (Micrococcus luteus [17]): 0.1 µg/mL (≈ 0.131 µM)
CC[C@H]1OC(=O)[C@H](C)[C@@H](O[C@H]2C[C@@](C)(OC)[C@@H](O)[C@H](C)O2)[C@H](C)[C@@H](O[C@@H]2O[C@H](C)C[C@H](N(C)C)[C@H]2O)[C@@](C)(O)C[C@@H](C)[C@@H](N(C)C)[C@H](C)[C@@H](O)[C@@]1(O)CO	100 (≈ 128 µM)	> 100	12.5 (≈ 16 µM)	> 100	> 100	25 (≈ 32.1 µM)	25 (≈ 32.1 µM)	50 (≈ 64.2 µM)	> 100	1.56 (≈ 2 µM)	3.1 (≈ 3.98 µM)	25 (≈ 32.1 µM)	> 100	50 (≈ 64.2 µM)	6.2 (≈ 7.96 µM)	> 100	> 100	25 (≈ 32.1 µM)	3.1 (≈ 3.98 µM)	> 100	MIC (Staphylococcus aureus [15]): 25 µg/mL (≈ 32.1 µM); MIC (Escherichia coli [16]): 1.56 µg/mL (≈ 2 µM); MIC (Micrococcus luteus [17]): 3.1 µg/mL (≈ 3.98 µM)
CC[C@H]1OC(=O)[C@H](C)[C@@H](O[C@H]2C[C@@](C)(OC)[C@@H](O)[C@H](C)O2)[C@H](C)[C@@H](O[C@H]2O[C@H](C)C[C@H](N(C)C)[C@H]2O)[C@@](C)(O)C[C@@H](C)[C@@H](N(C)C)[C@H](C)[C@@H](O)[C@@]12CO2	6.2 (≈ 8.15 µM)	100 (≈ 131 µM)	0.02 (≈ 0.0263 µM)	12.5 (≈ 16.4 µM)	> 100	25 (≈ 32.9 µM)	0.78 (≈ 1.02 µM)	50 (≈ 65.7 µM)	100 (≈ 131 µM)	0.05 (≈ 0.0657 µM)	0.02 (≈ 0.0263 µM)	0.39 (≈ 0.512 µM)	> 100	12.5 (≈ 16.4 µM)	0.1 (≈ 0.131 µM)	> 100	> 100	0.78 (≈ 1.02 µM)	0.05 (≈ 0.0657 µM)	100 (≈ 131 µM)	MIC (Staphylococcus aureus [15]): 0.78 µg/mL (≈ 1.02 µM); MIC (Escherichia coli [16]): 0.39 µg/mL (≈ 0.512 µM); MIC (Micrococcus luteus [17]): 0.1 µg/mL (≈ 0.131 µM)
CC[C@H]1OC(=O)[C@H](C)[C@@H](O[C@H]2C[C@@](C)(OC)[C@@H](O)[C@H](C)O2)[C@H](C)[C@@H](O[C@@H]2O[C@H](C)C[C@H](N(C)C)[C@H]2O)[C@@](C)(O)C[C@@H](C)[C@@H](N(C)C)[C@H](C)[C@@H](O)[C@H]1CO	50 (≈ 65.5 µM)	100 (≈ 131 µM)	1.56 (≈ 2.04 µM)	3.1 (≈ 4.06 µM)	100 (≈ 131 µM)	25 (≈ 32.8 µM)	6.2 (≈ 8.13 µM)	50 (≈ 65.5 µM)	> 100	0.39 (≈ 0.511 µM)	0.78 (≈ 1.02 µM)	6.2 (≈ 8.13 µM)	100 (≈ 131 µM)	1.56 (≈ 2.04 µM)	0.78 (≈ 1.02 µM)	> 100	50 (≈ 65.5 µM)	6.2 (≈ 8.13 µM)	0.78 (≈ 1.02 µM)	50 (≈ 65.5 µM)	MIC (Staphylococcus aureus [15]): 6.2 µg/mL (≈ 8.13 µM); MIC (Escherichia coli [16]): 0.39 µg/mL (≈ 0.511 µM); MIC (Micrococcus luteus [17]): 0.78 µg/mL (≈ 1.02 µM)
